In PMC9061999, “Application of the Adverse Outcome Pathway Concept to In Vitro Nephrotoxicity Assessment: Kidney Injury due to Receptor-Mediated Endocytosis and Lysosomal Overload as a Case Study” (Frontiers in Toxicology, 2022):

Experiments:
NRK-52E cells [1] = assay: Cathepsin D immunofluorescence (KE2, disruption of lysosomes); format: cell-based, rat; conditions: for MOE, lowest across KEs: in vitro PODs in NRK-52E vs rat plasma concentrations after human equivalent or nephrotoxic doses
Protocol: (§1) For immunocytochemistry experiments, cells were seeded into 8-well chamber slides (Ibidi) at a density of 140 cells per µL in 300 µL growth medium and were allowed to grow for 48 h (NRK-52E) or 10 d (RPTEC/TERT1) respectively. For treatment, stock solutions (1,000 µM) of compounds dissolved in growth medium were freshly prepared and serial dilutions were made before exposure of cells for 24 h. After treatment, cells were washed twice with 150 µL PBS and fixed with 150 µL 4% paraformaldehyde in 1 x PBS for 10 min at room temperature. After fixation, cells were washed 10 min with 150 µL PBS on an orbital shaker followed by permeabilization with 150 µL 0.2% Triton X-100 in 1 x PBS for 5 min at room temperature on an orbital shaker. The permeabilized cells were washed twice with 1 x PBS (150 µL) for 10 min at room temperature on an orbital shaker and then incubated with 150 µL 5% BSA dissolved in 1 x PBS for 1 h at room temperature to block unspecific binding sites. After blocking, 100 µL primary antibody diluted 1:100 in 1% BSA in 1 x PBS were directly pipetted onto the cells and incubated overnight at 4°C. The following antibodies were employed for NRK-52E cells: Anti-LAMP-1 monoclonal IgG1 kappa mouse antibody (Santa Cruz; sc-20011), anti-Cathepsin D mouse monoclonal IgG2 kappa antibody (Santa Cruz; sc-377124); for RPTEC/TERT1 cells: Anti-LAMP-2 monoclonal mouse antibody (Santa Cruz; sc-18822), anti-Cathepsin D mouse monoclonal IgG2b kappa (Novus Biologicals; NBP1-04278); for both cell lines anti-megalin mouse monoclonal IgG1 antibody (Santa Cruz, sc-515772).
(§2) After incubation with primary antibody, cells were washed three times for 15 min with 0.2% Tween in 1 x PBS (150 µL) on an orbital shaker. Cells were incubated for 1 h at room temperature with 100 µL CFL 488-conjugated mouse IgG kappa binding protein (1:50) (m-IgGκ BP-CFL 488; Santa Cruz, sc-516176). After incubation the cells were washed three times for 15 min with 0.2% Tween in 1 x PBS on an orbital shaker and once with 150 µL sterile water. […] To preserve fluorescence 50–100 µL DAPI mounting medium (Vectashield®; Vectorlab, Biozol) was added to the cells and chamber slides were stored at 4°C in the dark until image acquisition.
(§3) Images were taken with a TCS SP5 II confocal microscope with an HCX PL APO lambda blue 63.0 × 1.40 OIL UV objective (Leica Microsystems, Wetzlar, GER) (n = 10 cells/treatment group). […] Before quantification, images were blinded and randomized. Quantification of fluorescence intensity was performed using NIH Image® software. […] The mean values of the pixel intensities were automatically calculated by the software and imported in Excel for further processing.

NRK-52E cells [2] = assay: LAMP-1 immunofluorescence (KE1, disturbance of lysosomal function); format: cell-based, rat; conditions: for BMC10, KE1: in vitro POD from KE dose-response, LAMP-1 intensity, NRK-52E, 24 h treatment, n = 3; for MOE, KE1: margin of exposure: BMC10 in NRK-52E vs rat plasma/serum concentration (cmax or css)
Protocol: as §1, §2, §3

| Substance | MOE, lowest across KEs (NRK-52E cells [1]) | BMC10, KE1 (NRK-52E cells [2]) [µM] | MOE, KE1 (NRK-52E cells [2]) | BMC10, KE2 (NRK-52E cells [1]; in vitro POD from KE dose-response, cathepsin D intensity, NRK-52E, 24 h treatment, n = 3) [µM] | MOE, KE2 (NRK-52E cells [1]; margin of exposure: BMC10 in NRK-52E vs rat plasma/serum concentration (cmax or css)) |
| --- | --- | --- | --- | --- | --- |
| Colistin | 1.8 | 36.2 | 3.5 – 7.1 | – | – |
| Polymyxin B | 0.8 | 13.7 | 1.9 – 2.0 | 5.8 | 0.8 |
